Experimental findings from US20240262826A1, “WILD TYPE KIT INHIBITORS” (Blueprint Medicines Corporation, priority 2022, published 2024) are described below.

Structures are written as SMILES.

The target of one series is wild type c-kit (Homo sapiens (Human), UniProt P10721). Description: PathScan phospho c-kit (Tyr719) sandwich ELISA in SCF-stimulated M-07e cells (pKIT assay). The note with it: ELISA assay (values not marked *). The class given is cell-based. The gist of the method:
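Tyr719-phosphorylated c-kit was measured by colorimetric (TMB) sandwich ELISA in lysates of M-07e cells. Cells were starved 4 h without serum or GM-CSF, dosed 60 min at 37 °C with compound (8 points, duplicate, 0.25% DMSO), and stimulated 10 min with human SCF (500 ng/mL as added). IC50 values came from 4-parameter logistic regression.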

Series [1] addresses human P-glycoprotein (P-gp, MDR1) (Homo sapiens (Human), UniProt P08183). Kind of series: MDCK-MDR1 cell monolayer drug transport assay (P-gp efflux ratio). The class given is in vitro ADME. The note with it: pH 7.4, MDCK-MDR1 cells; for efflux ratio at 2 h, 1 µM: 1 uM concentration of compound, read-out: Pgp Efflux Ratio, 1 uM; for efflux ratio at 2 h, 0.1 µM: 0.1 uM concentration of compound (denoted by **), read-out: Pgp Efflux Ratio. The gist of the method:
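P-gp substrate potential tested in MDCK-MDR1 monolayers on Transwell supports, cultured 4-8 days; monolayers with TEER <42 ohms·cm2 discarded. Transport run in HBSS (10 mM HEPES, pH 7.4) at 37° C with compound working solution at 1 μM.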

In general, IC50 refers to the concentration needed to halve the response being measured.

Chain of wild type c-kit (P10721 26-976): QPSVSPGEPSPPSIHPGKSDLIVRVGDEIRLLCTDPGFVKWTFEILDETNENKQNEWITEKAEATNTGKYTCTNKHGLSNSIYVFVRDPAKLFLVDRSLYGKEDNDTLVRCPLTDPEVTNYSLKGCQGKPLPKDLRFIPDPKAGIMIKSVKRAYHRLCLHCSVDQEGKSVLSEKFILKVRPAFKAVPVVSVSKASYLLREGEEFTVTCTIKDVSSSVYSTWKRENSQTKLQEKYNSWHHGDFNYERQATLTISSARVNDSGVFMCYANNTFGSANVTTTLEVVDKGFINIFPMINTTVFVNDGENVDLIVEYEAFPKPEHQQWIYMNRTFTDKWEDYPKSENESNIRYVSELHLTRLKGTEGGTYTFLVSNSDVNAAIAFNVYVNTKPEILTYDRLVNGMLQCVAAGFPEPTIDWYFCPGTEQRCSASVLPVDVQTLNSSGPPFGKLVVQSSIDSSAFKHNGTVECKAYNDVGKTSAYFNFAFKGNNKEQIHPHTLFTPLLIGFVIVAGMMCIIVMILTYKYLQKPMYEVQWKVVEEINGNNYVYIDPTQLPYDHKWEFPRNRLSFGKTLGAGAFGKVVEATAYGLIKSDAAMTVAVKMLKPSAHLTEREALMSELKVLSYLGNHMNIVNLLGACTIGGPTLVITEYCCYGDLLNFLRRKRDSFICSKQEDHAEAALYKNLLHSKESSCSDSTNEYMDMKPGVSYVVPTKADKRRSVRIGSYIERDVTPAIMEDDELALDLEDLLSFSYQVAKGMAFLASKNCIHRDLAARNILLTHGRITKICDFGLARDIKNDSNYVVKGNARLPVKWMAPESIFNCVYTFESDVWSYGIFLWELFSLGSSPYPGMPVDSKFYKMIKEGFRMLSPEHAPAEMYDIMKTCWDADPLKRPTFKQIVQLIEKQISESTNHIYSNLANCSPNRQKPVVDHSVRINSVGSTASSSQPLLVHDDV
Chain of human P-glycoprotein (P-gp, MDR1) (P08183 whole entry): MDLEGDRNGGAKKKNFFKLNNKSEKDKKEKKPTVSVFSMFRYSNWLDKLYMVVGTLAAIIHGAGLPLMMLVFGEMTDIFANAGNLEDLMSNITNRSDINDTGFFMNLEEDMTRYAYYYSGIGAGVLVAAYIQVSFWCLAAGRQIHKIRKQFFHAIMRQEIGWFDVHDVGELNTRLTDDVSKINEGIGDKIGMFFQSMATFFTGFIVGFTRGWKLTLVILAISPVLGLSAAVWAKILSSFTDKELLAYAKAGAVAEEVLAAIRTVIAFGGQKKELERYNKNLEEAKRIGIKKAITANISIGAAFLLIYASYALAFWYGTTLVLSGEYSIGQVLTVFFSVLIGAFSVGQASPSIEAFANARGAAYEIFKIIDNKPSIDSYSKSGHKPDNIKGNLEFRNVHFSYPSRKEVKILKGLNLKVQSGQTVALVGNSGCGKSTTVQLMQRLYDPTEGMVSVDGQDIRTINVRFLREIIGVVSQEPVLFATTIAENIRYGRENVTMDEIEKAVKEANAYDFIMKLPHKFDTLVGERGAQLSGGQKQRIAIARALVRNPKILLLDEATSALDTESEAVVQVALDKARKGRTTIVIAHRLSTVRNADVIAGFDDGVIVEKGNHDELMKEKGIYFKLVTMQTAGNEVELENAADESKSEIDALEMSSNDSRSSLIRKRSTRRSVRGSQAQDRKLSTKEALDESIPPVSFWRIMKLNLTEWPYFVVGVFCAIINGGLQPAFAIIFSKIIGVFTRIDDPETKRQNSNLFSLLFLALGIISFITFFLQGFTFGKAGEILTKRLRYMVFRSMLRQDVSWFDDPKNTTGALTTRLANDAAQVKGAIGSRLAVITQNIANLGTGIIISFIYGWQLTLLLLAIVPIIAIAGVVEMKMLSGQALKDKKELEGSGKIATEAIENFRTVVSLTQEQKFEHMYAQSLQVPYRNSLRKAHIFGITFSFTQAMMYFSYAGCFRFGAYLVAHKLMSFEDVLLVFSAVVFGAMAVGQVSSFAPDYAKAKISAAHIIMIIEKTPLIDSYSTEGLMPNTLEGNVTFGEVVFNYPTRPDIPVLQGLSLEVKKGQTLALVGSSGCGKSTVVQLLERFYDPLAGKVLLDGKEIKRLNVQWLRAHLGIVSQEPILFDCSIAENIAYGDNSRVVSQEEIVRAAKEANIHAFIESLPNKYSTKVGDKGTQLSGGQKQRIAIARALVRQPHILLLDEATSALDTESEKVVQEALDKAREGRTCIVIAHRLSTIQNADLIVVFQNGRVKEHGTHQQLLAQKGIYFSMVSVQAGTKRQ

On to `Cc1ccc(-n2nnc(C3CC3)n2)cc1NC(=O)c1cnn2ccc(-c3cnn(CCO)c3)cc12` [Example 52, N-(5-(5-cyclopropyl-2H-tetrazol-2-yl)-2-methylphenyl)-5-(1-(2-hydroxyethyl)-1H-pyrazol-4-yl)pyrazolo[1,5-a]pyridine-3-carboxamide], for which half-maximal inhibition against wild type c-kit (IC50) required 0.7 nM. For the same molecule, the efflux ratio at 2 h, 1 µM in series [1] is 5.9.
For `COC[C@@H](O)Cn1cc(-c2ccn3ncc(C(=O)Nc4cc(-c5nnn(C6CC6)n5)ccc4C)c3c2)c(C2CC2)n1` [Example 243, (S)-5-(3-cyclopropyl-1-(2-hydroxy-3-methoxypropyl)-1H-pyrazol-4-yl)-N-(5-(2-cyclopropyl-2H-tetrazol-5-yl)-2-methylphenyl)pyrazolo[1,5-a]pyridine-3-carboxamide], in that order: 0.1 nM and 13.5.
`COC[C@@H]1CCN1c1ccn2ncc(C(=O)Nc3cc(-c4nnn(C5CN(C(=O)OC)C5)n4)ccc3C)c2c1` (stereo in doubt) [Example 85, methyl (S)-3-(5-(3-(5-(2-(methoxymethyl)azetidin-1-yl)pyrazolo[1,5-a]pyridine-3-carboxamido)-4-methylphenyl)-2H-tetrazol-2-yl)azetidine-1-carboxylate or methyl (R)-3-(5-(3-(5-(2-(methoxymethyl)azetidin-1-yl)pyrazolo[1,5-a]pyridine-3-carboxamido)-4-methylphenyl)-2H-tetrazol-2-yl)azetidine-1-carboxylate] yielded an IC50 on wild type c-kit of 25 nM. The efflux ratio at 2 h, 1 µM in series [1] is 7.1.
In the same order, the values of `COCCNc1ccn2ncc(C(=O)Nc3cc(-c4nnn([C@H]5C[C@@H](C(F)(F)F)C5)n4)ccc3C)c2c1` [Example 119, 5-((2-methoxyethyl)amino)-N-(2-methyl-5-(2-((1s,3s)-3-(trifluoromethyl)cyclobutyl)-2H-tetrazol-5-yl)phenyl)pyrazolo[1,5-a]pyridine-3-carboxamide or 5-((2-methoxyethyl)amino)-N-(2-methyl-5-(2-((1r,3r)-3-(trifluoromethyl)cyclobutyl)-2H-tetrazol-5-yl)phenyl)pyrazolo[1,5-a]pyridine-3-carboxamide] are 2.3 nM and 3.9.
For the molecule `Cc1cc(F)c(-c2nnn([C@H]3C[C@@H](C(F)(F)F)C3)n2)cc1NC(=O)c1cnn2ccc(N3CCC(C)(O)CC3)cc12` [Example 109, N-(4-fluoro-2-methyl-5-(2-((1s,3s)-3-(trifluoromethyl)cyclobutyl)-2H-tetrazol-5-yl)phenyl)-5-(4-hydroxy-4-methylpiperidin-1-yl)pyrazolo[1,5-a]pyridine-3-carboxamide], half-maximal inhibition against wild type c-kit (IC50) was put at 4.9 nM. For the same molecule, in series [1], the efflux ratio at 2 h, 1 µM is 15.4.
For `COCCNc1ccn2ncc(C(=O)Nc3cc(-n4nnc(C5CN(C(=O)OC)C5)n4)ccc3Cl)c2c1` [Example 113, methyl 3-(2-(4-chloro-3-(5-((2-methoxyethyl)amino)pyrazolo[1,5-a]pyridine-3-carboxamido)phenyl)-2H-tetrazol-5-yl)azetidine-1-carboxylate], in that order: 6.4 nM and 3.4.
In the same order, the values of `Cc1ccc(-c2nnn(C3CC(F)(F)C3)n2)cc1NC(=O)c1cnn2ccc(N3CC[C@@H](O)C3)cc12` [Example 78, (R)-N-(5-(2-(3,3-difluorocyclobutyl)-2H-tetrazol-5-yl)-2-methylphenyl)-5-(3-hydroxypyrrolidin-1-yl)pyrazolo[1,5-a]pyridine-3-carboxamide] are 9.6 nM and 13.1.
For `Cc1cc(F)c(-c2nnn(C3CC3)n2)cc1NC(=O)c1cnn2ccc(-c3cnn(CC(C)(C)O)c3C)cc12` [Example 240, N-(5-(2-cyclopropyl-2H-tetrazol-5-yl)-4-fluoro-2-methylphenyl)-5-(1-(2-hydroxy-2-methylpropyl)-5-methyl-1H-pyrazol-4-yl)pyrazolo[1,5-a]pyridine-3-carboxamide], in that order: 0.6 nM and 7.4.
Take `Cc1nn(CCO)cc1-c1ccn2ncc(C(=O)Nc3cc(-c4nnn(C5CC5)n4)ccc3Cl)c2c1` [Example 238, N-[2-chloro-5-(2-cyclopropyl-2H-1,2,3,4-tetrazol-5-yl)phenyl]-5-[1-(2-hydroxyethyl)-3-methyl-1H-pyrazol-4-yl]pyrazolo[1,5-a]pyridine-3-carboxamide]: the IC50 on wild type c-kit turned out to be 0.2 nM. Besides, the efflux ratio at 2 h, 0.1 µM in series [1] was 5.9.
Molecule `COC[C@@](C)(O)Cn1cc(-c2ccn3ncc(C(=O)Nc4cc(-c5nnn(C6CC6)n5)ccc4C)c3c2)cn1` (single isomer, unassigned) [Example 268, (S)-N-(5-(2-cyclopropyl-2H-tetrazol-5-yl)-2-methylphenyl)-5-(1-(2-hydroxy-3-methoxy-2-methylpropyl)-1H-pyrazol-4-yl)pyrazolo[1,5-a]pyridine-3-carboxamide or (R)-N-(5-(2-cyclopropyl-2H-tetrazol-5-yl)-2-methylphenyl)-5-(1-(2-hydroxy-3-methoxy-2-methylpropyl)-1H-pyrazol-4-yl)pyrazolo[1,5-a]pyridine-3-carboxamide] returned a half-maximal inhibitory concentration (IC50) on wild type c-kit of 1.6 nM. Moreover, the efflux ratio at 2 h, 1 µM in series [1] is 5.2.
In the same order, the values of `Cc1ccc(-c2nnn([C@H]3C[C@@H](C(F)(F)F)C3)n2)cc1NC(=O)c1cnn2ccc(N3CCN(CCO)CC3)cc12` [Example 106, 5-(4-(2-hydroxyethyl)piperazin-1-yl)-N-(2-methyl-5-(2-((1s,3s)-3-(trifluoromethyl)cyclobutyl)-2H-tetrazol-5-yl)phenyl)pyrazolo[1,5-a]pyridine-3-carboxamide] are 5.8 nM and 37.4.
On wild type c-kit, `Cc1nn(CC(C)(C)O)cc1-c1ccn2ncc(C(=O)Nc3cc(-c4nnn(C5CC5)n4)c(F)cc3Cl)c2c1` [Example 251, N-(2-chloro-5-(2-cyclopropyl-2H-tetrazol-5-yl)-4-fluorophenyl)-5-(1-(2-hydroxy-2-methylpropyl)-3-methyl-1H-pyrazol-4-yl)pyrazolo[1,5-a]pyridine-3-carboxamide] returned an IC50 of 0.4 nM. In addition, in series [1], the efflux ratio at 2 h, 0.1 µM is 1.8.
At wild type c-kit, `Cc1cnn(-c2ccc(C)c(NC(=O)c3cnn4ccc(-c5cnn(C[C@@H]6CNCCO6)c5)cc34)c2)n1` [Example 204, (S)—N-(2-methyl-5-(4-methyl-2H-1,2,3-triazol-2-yl)phenyl)-5-(1-(morpholin-2-ylmethyl)-1H-pyrazol-4-yl)pyrazolo[1,5-a]pyridine-3-carboxamide] yielded an IC50 of 10.1 nM. For the same molecule, the efflux ratio at 2 h, 1 µM in series [1] amounted to 62.1.
Take `COCCNc1cc2c(C(=O)Nc3cc(-c4nnn(C5CN(C(=O)OC)C5)n4)ccc3C)cnn2cc1F` [Example 171, methyl 3-(5-(3-(6-fluoro-5-((2-methoxyethyl)amino)pyrazolo[1,5-a]pyridine-3-carboxamido)-4-methylphenyl)-2H-tetrazol-2-yl)azetidine-1-carboxylate]: the IC50 on wild type c-kit turned out to be 34.3 nM. For the same molecule, in series [1], the efflux ratio at 2 h, 1 µM is 6.
As for `COC[C@@H](O)Cn1cc(-c2ccn3ncc(C(=O)Nc4cc(-c5nnn(C6CC6)n5)c(F)cc4C)c3c2)c(C2CC2)n1` [Example 257, (S)-5-(3-cyclopropyl-1-(2-hydroxy-3-methoxypropyl)-1H-pyrazol-4-yl)-N-(5-(2-cyclopropyl-2H-tetrazol-5-yl)-4-fluoro-2-methylphenyl)pyrazolo[1,5-a]pyridine-3-carboxamide], the IC50 against wild type c-kit came out at 0.7 nM. Besides, in series [1], the efflux ratio at 2 h, 1 µM amounted to 8.9.
In the same order, the values of `COC(=O)N1CC(n2nnc(-c3ccc(C)c(NC(=O)c4cnn5ccc(N6CCOCC6)cc45)c3)n2)C1` [Example 69, methyl 3-(5-(4-methyl-3-(5-morpholinopyrazolo[1,5-a]pyridine-3-carboxamido)phenyl)-2H-tetrazol-2-yl)azetidine-1-carboxylate] are 50.1 nM and 11.7.
Take `Cc1cc(F)c(-c2nnn(C3CC3)n2)cc1NC(=O)c1cnn2ccc(-c3cnn(CC(C)(C)O)c3)cc12` [Example 207, N-(5-(2-cyclopropyl-2H-tetrazol-5-yl)-4-fluoro-2-methylphenyl)-5-(1-(2-hydroxy-2-methylpropyl)-1H-pyrazol-4-yl)pyrazolo[1,5-a]pyridine-3-carboxamide]: the IC50 against wild type c-kit stood at 1.4 nM. In series [1], the efflux ratio at 2 h, 1 µM was found to be 16.2.
In the same order, the values of `Cc1ccc(-c2nnn(C3CC3)n2)cc1NC(=O)c1cnn2ccc(-c3cnn(CC4(O)CCOCC4)c3)cc12` [Example 206, N-(5-(2-cyclopropyl-2H-tetrazol-5-yl)-2-methylphenyl)-5-(1-((4-hydroxytetrahydro-2H-pyran-4-yl)methyl)-1H-pyrazol-4-yl)pyrazolo[1,5-a]pyridine-3-carboxamide] are 1.2 nM and 22.6.
In the case of `COCCOc1ccc2c(C(=O)Nc3cc(-c4nnn(C5CN(C(=O)OC)C5)n4)ccc3C)cnn2c1` [Example 143, methyl 3-(5-(3-(6-(2-methoxyethoxy)pyrazolo[1,5-a]pyridine-3-carboxamido)-4-methylphenyl)-2H-tetrazol-2-yl)azetidine-1-carboxylate], the IC50 on wild type c-kit turned out to be 10.5 nM. Besides, the efflux ratio at 2 h, 1 µM in series [1] is 4.
At wild type c-kit, `CC(C)(O)Cn1cc(-c2ccn3ncc(C(=O)Nc4cc(-c5nnn(C6CC6)n5)ccc4Cl)c3c2)cn1` [Example 234, N-(2-chloro-5-(2-cyclopropyl-2H-tetrazol-5-yl)phenyl)-5-(1-(2-hydroxy-2-methylpropyl)-1H-pyrazol-4-yl)pyrazolo[1,5-a]pyridine-3-carboxamide] showed an IC50 of 0.5 nM. Moreover, the efflux ratio at 2 h, 0.1 µM in series [1] is 3.8.
